Reference: patent EP0527889B1, “QUINOLIZINONE TYPE COMPOUNDS” (priority 1990, dated 1991)
In brackets after ≈: the same amount, converted by molar mass. Counter-ions that a name gives are not always drawn.

What was measured:
Assay in all cases: In vitro antibacterial activity, MIC by agar dilution
Format in all cases: cell-based
Conditions in all cases: BHI agar, 35-37°C, 20-24 hours, unit assumed
[1] = test system: Acinetobacter calcoaceticus CMX 669
Experimental: (§1) Each plate was inoculated with 1:100 (or 1:10 for slow growing strains, primarily Micrococcus and Streptococcus) dilutions of up to 32 different microorganisms, using a Steers replicator block calibrated to deliver approximately 10^4 colony forming units (CFUs). The inoculated plates were incubated at from about 35°C to about 37°C for approximately 20-24 hours. In addition, a control plate using BHI agar containing no test compound was prepared and incubated at the beginning and at the end of each test. Ciprofloxacin was used as the control antibiotic.
(§2) The MIC was defined as the lowest concentration of test compound yielding no growth (a slight haze or sparsely isolated colonies at the inoculum spot) as compared to the growth control containing no test compound.

[2] = test system: Enterobacter aerogenes ATCC 13048
Experimental: as §1, §2

[3] = test system: Enterococcus faecium ATCC 8043
Experimental: as §1, §2

Escherichia coli DC-2 = test system: Escherichia coli DC-2
Experimental: as §1, §2

Escherichia coli H560 = test system: Escherichia coli H560
Experimental: as §1, §2

Escherichia coli JUHL = test system: Escherichia coli JUHL
Experimental: as §1, §2

Escherichia coli KNK 437 = test system: Escherichia coli KNK 437
Experimental: as §1, §2

Escherichia coli SS = test system: Escherichia coli SS
Experimental: as §1, §2

[4] = test system: Klebsiella pneumoniae ATCC 8045
Experimental: as §1, §2

[5] = test system: Micrococcus luteus ATCC 4698
Experimental: as §1, §2

[6] = test system: Micrococcus luteus ATCC 9341
Experimental: as §1, §2

[7] = test system: Providencia stuartii CMX 640
Experimental: as §1, §2

[8] = test system: Pseudomonas aeruginosa 2862
Experimental: as §1, §2

[9] = test system: Pseudomonas aeruginosa 5263
Experimental: as §1, §2

[10] = test system: Pseudomonas aeruginosa A5007
Experimental: as §1, §2

[11] = test system: Pseudomonas aeruginosa BMH10
Experimental: as §1, §2

[12] = test system: Pseudomonas aeruginosa K799/61
Experimental: as §1, §2

[13] = test system: Pseudomonas aeruginosa K799/WT
Experimental: as §1, §2

Pseudomonas cepacia 296I = test system: Pseudomonas cepacia 296I
Experimental: as §1, §2

[14] = test system: Staphylococcus aureus 1775
Experimental: as §1, §2

[15] = test system: Staphylococcus aureus 642A
Experimental: as §1, §2

[16] = test system: Staphylococcus aureus A-5278
Experimental: as §1, §2

[17] = test system: Staphylococcus aureus A5177
Experimental: as §1, §2

[18] = test system: Staphylococcus aureus ATCC 6538P
Experimental: as §1, §2

[19] = test system: Staphylococcus aureus CMX 553
Experimental: as §1, §2

[20] = test system: Staphylococcus aureus NCTC 10649
Experimental: as §1, §2

[21] = test system: Staphylococcus epidermidis 3519
Experimental: as §1, §2

[22] = test system: Streptococcus agalactaciae CMX 508
Experimental: as §1, §2

[23] = test system: Streptococcus bovis A5169
Experimental: as §1, §2

[24] = test system: Streptococcus pyrogenes 2548 INDUC
Experimental: as §1, §2

[25] = test system: Streptococcus pyrogenes CONST
Experimental: as §1, §2

[26] = test system: Streptococcus pyrogenes EES61
Experimental: as §1, §2

Structure (SMILES)	MIC values [1] [µg/mL]	MIC values [3] [µg/mL]	MIC values (Escherichia coli DC-2) [µg/mL]	MIC values (Escherichia coli H560) [µg/mL]	MIC values (Escherichia coli JUHL) [µg/mL]	MIC values (Escherichia coli KNK 437) [µg/mL]	MIC values (Escherichia coli SS) [µg/mL]	MIC values [5] [µg/mL]	MIC values [6] [µg/mL]	MIC values [9] [µg/mL]	MIC values [11] [µg/mL]	MIC values [12] [µg/mL]	MIC values [13] [µg/mL]	MIC values (Pseudomonas cepacia 296I) [µg/mL]	MIC values [17] [µg/mL]	MIC values [18] [µg/mL]	MIC values [19] [µg/mL]	MIC values [20] [µg/mL]	MIC values [21] [µg/mL]	MIC values [22] [µg/mL]	further results
NC1CCN(c2nc3c(C4CC4)cc(C(=O)O)c(=O)n3cc2F)C1 (centres unmarked) [Example 157, 2-(3-Aminopyrrolidin-1-yl)-9-cyclopropyl-3-fluoro-6H-6-oxo-pyrido[1,2-a]pyrimidine-7-carboxylic acid hydrochloride salt]	0.2	1.56	0.39	0.02	0.02	0.39	0.01	1.56	3.1	50	0.2	0.05	0.2	3.1	0.39	0.2	0.39	0.2	0.39	1.56	MIC values ([2]; hydrochloride salt): 0.02 µg/mL; MIC values ([4]; hydrochloride salt): 0.02 µg/mL; MIC values ([7]; hydrochloride salt): 1.56 µg/mL; MIC values ([8]; hydrochloride salt): 25 µg/mL; MIC values ([10]; hydrochloride salt): 0.39 µg/mL; MIC values ([14]; hydrochloride salt): 25 µg/mL; MIC values ([15]; hydrochloride salt): 0.39 µg/mL; MIC values ([16]; hydrochloride salt): 0.39 µg/mL; MIC values ([23]; hydrochloride salt): 3.1 µg/mL; MIC values ([24]; hydrochloride salt): 0.39 µg/mL; MIC values [25]: 1.56 µg/mL; MIC values [26]: 1.56 µg/mL
CN1CCN(c2nc3c(-c4ccc(F)cc4F)cc(C(=O)O)c(=O)n3cc2F)CC1 [Example 159, 9-(2,4-Difluorophenyl)-3-fluoro-2-(4-methylpiperazin-1-yl)-6H-6-oxopyridol[1,2-a]pyrimidine-7-carboxylic acid]	0.78 (≈ 1.86 µM)	6.2 (≈ 14.8 µM)	6.2 (≈ 14.8 µM)	0.39 (≈ 0.932 µM)	0.39 (≈ 0.932 µM)	6.2 (≈ 14.8 µM)	0.02 (≈ 0.0478 µM)	12.5 (≈ 29.9 µM)	25 (≈ 59.8 µM)	> 100	3.1 (≈ 7.41 µM)	0.39 (≈ 0.932 µM)	3.1 (≈ 7.41 µM)	25 (≈ 59.8 µM)	0.39 (≈ 0.932 µM)	0.2 (≈ 0.478 µM)	0.39 (≈ 0.932 µM)	0.2 (≈ 0.478 µM)	0.39 (≈ 0.932 µM)	3.1 (≈ 7.41 µM)	MIC values [2]: 0.78 µg/mL (≈ 1.86 µM); MIC values [4]: 0.2 µg/mL (≈ 0.478 µM); MIC values [7]: 25 µg/mL (≈ 59.8 µM); MIC values [8]: > 100 µg/mL; MIC values [10]: 6.2 µg/mL (≈ 14.8 µM); MIC values [14]: > 100 µg/mL; MIC values [15]: 0.39 µg/mL (≈ 0.932 µM); MIC values [16]: 0.2 µg/mL (≈ 0.478 µM); MIC values [23]: 12.5 µg/mL (≈ 29.9 µM); MIC values [24]: 3.1 µg/mL (≈ 7.41 µM); MIC values [25]: 3.1 µg/mL (≈ 7.41 µM); MIC values [26]: 3.1 µg/mL (≈ 7.41 µM)
CC(C)(C)OC(=O)NC1CCN(c2nc3c(-c4ccc(F)cc4F)cc(C(=O)O)c(=O)n3cc2F)C1 (centres unmarked) [Example 160, 2-(3-(N-t-butoxycarbonyl)aminopyrrolidin-1-yl)-9-(2,4-difluorophenyl)-3-fluoro-6H-6-oxopyrido[1,2-a]pyrimidine-7-carboxylic acid]	3.1 (≈ 6.15 µM)	3.1 (≈ 6.15 µM)	25 (≈ 49.6 µM)	3.1 (≈ 6.15 µM)	0.39 (≈ 0.773 µM)	25 (≈ 49.6 µM)	0.005 (≈ 0.00991 µM)	0.78 (≈ 1.55 µM)	6.2 (≈ 12.3 µM)	> 100	12.5 (≈ 24.8 µM)	3.1 (≈ 6.15 µM)	12.5 (≈ 24.8 µM)	> 100	0.39 (≈ 0.773 µM)	0.2 (≈ 0.396 µM)	0.39 (≈ 0.773 µM)	0.2 (≈ 0.396 µM)	0.39 (≈ 0.773 µM)	1.56 (≈ 3.09 µM)	MIC values [2]: 12.5 µg/mL (≈ 24.8 µM); MIC values [4]: 1.56 µg/mL (≈ 3.09 µM); MIC values [7]: > 100 µg/mL; MIC values [8]: > 100 µg/mL; MIC values [10]: 25 µg/mL (≈ 49.6 µM); MIC values [14]: 100 µg/mL (≈ 198 µM); MIC values [15]: 0.2 µg/mL (≈ 0.396 µM); MIC values [16]: 0.2 µg/mL (≈ 0.396 µM); MIC values [23]: 6.2 µg/mL (≈ 12.3 µM); MIC values [24]: 0.78 µg/mL (≈ 1.55 µM); MIC values [25]: 1.56 µg/mL (≈ 3.09 µM); MIC values [26]: 1.56 µg/mL (≈ 3.09 µM)
NC1CCN(c2nc3c(-c4ccc(F)cc4F)cc(C(=O)O)c(=O)n3cc2F)C1 (centres unmarked) [Example 161, 2-(3-Aminopyrrolidin-1-yl)-9-(2,4-difluorophenyl)-3-fluoro-6H-6-oxopyrido[1,2-a]pyrimidine-7-carboxylic acid]	0.05 (≈ 0.124 µM)	0.78 (≈ 1.93 µM)	0.2 (≈ 0.495 µM)	0.02 (≈ 0.0495 µM)	0.02 (≈ 0.0495 µM)	0.2 (≈ 0.495 µM)	0.005 (≈ 0.0124 µM)	3.1 (≈ 7.67 µM)	3.1 (≈ 7.67 µM)	100 (≈ 247 µM)	0.2 (≈ 0.495 µM)	0.05 (≈ 0.124 µM)	0.2 (≈ 0.495 µM)	3.1 (≈ 7.67 µM)	0.1 (≈ 0.247 µM)	0.05 (≈ 0.124 µM)	0.1 (≈ 0.247 µM)	0.05 (≈ 0.124 µM)	0.1 (≈ 0.247 µM)	0.39 (≈ 0.965 µM)	MIC values [2]: 0.05 µg/mL (≈ 0.124 µM); MIC values [4]: 0.01 µg/mL (≈ 0.0247 µM); MIC values [7]: 1.56 µg/mL (≈ 3.86 µM); MIC values [8]: 100 µg/mL (≈ 247 µM); MIC values [10]: 0.2 µg/mL (≈ 0.495 µM); MIC values [14]: 100 µg/mL (≈ 247 µM); MIC values [15]: 0.1 µg/mL (≈ 0.247 µM); MIC values [16]: 0.1 µg/mL (≈ 0.247 µM); MIC values [23]: 1.56 µg/mL (≈ 3.86 µM); MIC values [24]: 0.1 µg/mL (≈ 0.247 µM); MIC values [25]: 0.39 µg/mL (≈ 0.965 µM); MIC values [26]: 0.39 µg/mL (≈ 0.965 µM)
